Assay [1] has as its target ROR gamma ligand binding domain (Homo sapiens (Human), UniProt P51449). Put plainly: ROR gamma luciferase reporter assay (GAL4-ROR gamma LBD, HEK293 cells). The class given is cell-based. The note with it: 48 hours treatment, read-out: RORγ luciferase Reporter assay: IC50 (nM) (in range). How it is done:
The Ligand Binding Domain (LBD) of ROR gamma was cloned into pFN26A (BIND) hRluc-neo Flexi vector (Promega) which expresses a fusion protein comprised of a DNA binding domain of the yeast GAL4 gene, a linker segment and ROR gamma ligand binding domain. For the reporter assay 0.02×10^6 HEK293 cells were seeded per well in a 96 well plate in complete media and incubated overnight in an incubator with 5% CO2 at 37° C. before transfection. Cells were then co-transfected with pFN26A hRluc-neo Flexi vector containing the LBD of ROR gamma and pGL4.35 [luc2P/9XGAL4 UAS/Hygro] Vector (Promega) in low serum media. Post transfection and recovery, cells were treated with the test compounds for 48 hours. The assay was terminated using the Bright-Glo Luciferase assay system from Promega and the Luminescence was measured using a luminescence reader. The luminescence values were used to calculate the potency of the compounds.
(In general: A reporter such as luciferase makes a cellular process visible.)

For a further assay, the target named is RORγ LBD (Homo sapiens (Human), UniProt P51449). Description: ROR gamma radio-ligand binding assay (3H 25-Hydroxycholesterol competitive displacement, dextran charcoal method). The note with it: for inhibition at 1 µM: 1 μM compound; for inhibition at 10 µM: 10 μM compound; for IC50: in range. How it is done:
Gene corresponding to the ligand binding domain of RORγ (247-497 amino acids) was sub-cloned into pGEX4T1 vector. Transformants of E. coli BL21 (DE3) containing pGEX4T1-RORγ (247-497) were grown to an OD of 0.8 at 37° C. and induced with 0.5 mM isopropyl-β-D-thiogalactopyranoside (IPTG) for 18 hours at 18° C. Cells were harvested and resuspended in 20 mM Tris-HCl (pH 8.5), 0.3 M NaCl, 10% Glycerol, 2 mM β-Me (β-Mercaptoethanol), 2 mM CHAPS, protease inhibitors, 0.6 mM PMSF and Lysozyme. Supernatant of lysate was passed through glutathione sepharose 4B affinity beads (GE health care) pre-equilibrated with 20 mM Tris-HCl (pH 8.5), 0.3 M NaCl, 10% Glycerol, 2 mM β-Me. RORγ was eluted using a gradient of reduced glutathione (3-20 mM). Fractions containing RORγ protein were pooled, concentrated and passed through Superdex 75 gel filtration (GE health care) column equilibrated with 20 mM Na-phosphate pH 8.0, 0.2 M NaCl, 10% glycerol. The peak fractions from gel filtration column were pooled and stored at −80° C. for Binding assay.
ROR gamma radioligand binding was performed using ^3H 25-Hydroxycholesterol in a competitive displacement assay using dextran charcoal method. Using 5 nM ^3H 25-Hydroxycholesterol with 300 ng RORγ LBD (in house expressed in E. coli) along with the compound were incubated in the binding buffer (50 mM HEPES, pH 7.5, 150 mM NaCl, 0.01% BSA and 5 mM MgCl2) for 30 min at room temperature. Then dextran-charcoal mixture (0.5% charcoal: 0.05% dextran) was used for separation and the supernatant was read on the Perkin Elmer Trilux Microbeta counter. Dose response curves were generated for 10 compound concentrations using GraphPad Prism software Version 5 (San Diego, Calif., USA) using non-linear regression curve fit for sigmoidal dose response (variable slope).

Where only a bound is given, the exact number is not on record here.

Chain of RORγ LBD (P51449 268-518): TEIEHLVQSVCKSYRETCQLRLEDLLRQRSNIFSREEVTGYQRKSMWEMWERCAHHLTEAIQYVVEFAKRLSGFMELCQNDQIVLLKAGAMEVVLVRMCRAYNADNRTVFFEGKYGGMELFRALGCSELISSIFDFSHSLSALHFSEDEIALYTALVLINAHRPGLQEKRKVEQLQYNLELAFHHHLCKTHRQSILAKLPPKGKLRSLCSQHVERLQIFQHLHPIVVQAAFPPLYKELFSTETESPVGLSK
Chain of ROR gamma ligand binding domain (P51449 269-508): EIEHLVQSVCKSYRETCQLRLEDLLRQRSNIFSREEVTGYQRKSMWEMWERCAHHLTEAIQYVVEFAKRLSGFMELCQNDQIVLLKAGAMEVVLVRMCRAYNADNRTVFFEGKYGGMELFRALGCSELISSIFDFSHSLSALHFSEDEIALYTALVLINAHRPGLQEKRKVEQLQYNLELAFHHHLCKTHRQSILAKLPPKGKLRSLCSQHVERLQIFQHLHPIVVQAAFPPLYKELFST

Usually IC50 stands for the concentration that gives 50% inhibition. Take `CCS(=O)(=O)c1ccc(CNC(=O)c2ccc3c(n2)CCC(C)(c2cc(C)nc(C)n2)C3=O)cc1` (single isomer, unassigned) [compound 126, 6-(2,6-dimethylpyrimidin-4-yl)-N-(4-(ethylsulfonyl)benzyl)-6-methyl-5-oxo-5,6,7,8-tetrahydroquinoline-2-carboxamide]: in assay [1], the IC50 was over 500 nM. Still for that read-out and setting: for `CCS(=O)(=O)c1ccc(CC(=O)Nc2ccc3c(n2)CCC(C)(c2cc(C(F)(F)F)nc(C)n2)C3=O)cc1` (stereo not drawn) [Compound 67, 2-(4-(ethylsulfonyl)phenyl)-N-(6-methyl-6-(2-methyl-6-(trifluoromethyl)-pyrimidin-4-yl)-5-oxo-5,6,7,8-tetrahydroquinolin-2-yl)acetamide] the value was over 500 nM; for `CCS(=O)(=O)c1ccc(CC(=O)Nc2ccc3c(n2)CCC(C)(c2nccn4cc(C)nc24)C3=O)c(F)c1` (stereo not drawn) [Compound 58, 2-(4-(ethylsulfonyl)-2-fluorophenyl)-N-(6-methyl-6-(2-methylimidazo[1,2-a]pyrazin-8-yl)-5-oxo-5,6,7,8-tetrahydroquinolin-2-yl)acetamide], 100 to 500 nM. In the case of `CCS(=O)(=O)c1ccc(CC(=O)Nc2ccc3c(n2)CCC(C)(c2cc(C)nc(C)n2)C3=O)nc1` (single isomer, unassigned) [compound 123, N-(6-(2,6-dimethylpyrimidin-4-yl)-6-methyl-5-oxo-5,6,7,8-tetrahydroquinolin-2-yl)-2-(5-(ethylsulfonyl)pyridin-2-yl)acetamide], the IC50 in assay [1] was over 500 nM.

Take `CCS(=O)(=O)c1ccc(CC(=O)Nc2ccc3c(n2)CCC(C)(c2cc(C)nc(C)n2)C3=O)nc1` (single isomer, unassigned) [compound 124, N-(6-(2,6-dimethylpyrimidin-4-yl)-6-methyl-5-oxo-5,6,7,8-tetrahydroquinolin-2-yl)-2-(5-(ethylsulfonyl)pyridin-2-yl)acetamide]: the IC50 in assay [1] is 100 to 500 nM. With `CCS(=O)(=O)c1ccc(CC(=O)Nc2ccc3c(n2)CCC(C)(c2cc(C)nc(C(F)(F)F)n2)C3=O)cc1` (stereo not drawn) [Compound 78, 2-(4-(ethylsulfonyl)phenyl)-N-(6-methyl-6-(6-methyl-2-(trifluoromethyl)-pyrimidin-4-yl)-5-oxo-5,6,7,8-tetrahydroquinolin-2-yl)acetamide], the IC50 in assay [1] was in the range of 100 to 500 nM. Same read-out and setting: under `CCS(=O)(=O)c1ccc(CC(=O)Nc2ccc3c(n2)CCC(C)(c2cc(OC)nc(C)n2)C3=O)cc1` (single isomer, unassigned) [compound 116, 2-(4-(ethylsulfonyl)phenyl)-N-(6-(6-methoxy-2-methylpyrimidin-4-yl)-6-methyl-5-oxo-5,6,7,8-tetrahydroquinolin-2-yl)acetamide] stands over 500 nM; under `Cc1cn2ccnc(C3(C)CCc4nc(NC(=O)Cc5ccc(S(C)(=O)=O)cc5)ccc4C3=O)c2n1` (stereo not drawn) [Compound 59, N-(6-methyl-6-(2-methylimidazo[1,2-a]pyrazin-8-yl)-5-oxo-5,6,7,8-tetrahydroquinolin-2-yl)-2-(4-(methylsulfonyl)phenyl)acetamide], over 500 nM; under `CCS(=O)(=O)c1ccc(CC(=O)Nc2ccc3c(n2)CCC(C)(c2nccn4c(C5CC5)cnc24)C3=O)cc1` (stereo not drawn) [Compound 71, N-(6-(3-cyclopropylimidazo[1,2-a]pyrazin-8-yl)-6-methyl-5-oxo-5,6,7,8-tetrahydroquinolin-2-yl)-2-(4-(ethylsulfonyl)phenyl)acetamide], 100 to 500 nM. On the same count and under the same terms, for `CCS(=O)(=O)c1ccc(CC(=O)Nc2ccc3c(n2)CCC(C)(c2nccn4c(C)cnc24)C3=O)cc1` (single isomer, unassigned) [compound 114, 2-(4-(ethylsulfonyl)phenyl)-N-(6-methyl-6-(3-methylimidazo[1,2-a]pyrazin-8-yl)-5-oxo-5,6,7,8-tetrahydroquinolin-2-yl)acetamide] the value was over 500 nM; for `CCS(=O)(=O)c1ccc(CC(=O)Nc2ccc3c(n2)C(C)CC(C)(c2nccn4ccnc24)C3=O)cc1` (stereo not drawn) [Compound 48, 2-(4-(ethylsulfonyl)phenyl)-N-(6-(imidazo[1,2-a]pyrazin-8-yl)-6,8-dimethyl-5-oxo-5,6,7,8-tetrahydroquinolin-2-yl)acetamide], over 500 nM. Still for that read-out and setting: under `CCS(=O)(=O)c1ccc(CC(=O)Nc2ccc3c(n2)CCC(C)(c2cc(OC)nc(C)n2)C3=O)cc1` (stereo not drawn) [Compound 65, 2-(4-(ethylsulfonyl)phenyl)-N-(6-(6-methoxy-2-methylpyrimidin-4-yl)-6-methyl-5-oxo-5,6,7,8-tetrahydroquinolin-2-yl)acetamide] stands under 100 nM; under `CCS(=O)(=O)c1ccc(CC(=O)Nc2cc3c(cn2)C(=O)C(C)(c2cc(C)nc(C)n2)CC3)cc1` (stereo not drawn) [Compound 83, N-(7-(2,6-dimethylpyrimidin-4-yl)-7-methyl-8-oxo-5,6,7,8-tetrahydroisoquinolin-3-yl)-2-(4-(ethylsulfonyl)phenyl)acetamide], 100 to 500 nM; under `CCS(=O)(=O)c1ccc(CC(=O)Nc2cc(C)c3c(n2)CCC(C)(c2nccn4cc(C)nc24)C3=O)cc1` (stereo not drawn) [Compound 52, N-(4,6-dimethyl-6-(2-methylimidazo[1,2-a]pyrazin-8-yl)-5-oxo-5,6,7,8-tetrahydroquinolin-2-yl)-2-(4-(ethylsulfonyl)phenyl)acetamide], under 100 nM. For `CCS(=O)(=O)c1ccc(CC(=O)Nc2ccc3c(n2)CCC(C)(c2nccn4c(F)c(C)nc24)C3=O)cc1` (stereo not drawn) [Compound 66, 2-(4-(ethylsulfonyl)phenyl)-N-(6-(3-fluoro-2-methylimidazo[1,2-a]pyrazin-8-yl)-6-methyl-5-oxo-5,6,7,8-tetrahydroquinolin-2-yl)acetamide], the IC50 in assay [1] is under 100 nM. Same read-out and setting: under `CCS(=O)(=O)c1ccc(CC(=O)Nc2cc(C)c3c(n2)CCC(C)(c2ccc(N(C)C)nn2)C3=O)cc1` (stereo not drawn) [Compound 98, N-(6-(6-(dimethylamino)pyridazin-3-yl)-4,6-dimethyl-5-oxo-5,6,7,8-tetrahydroquinolin-2-yl)-2-(4-(ethylsulfonyl)phenyl)acetamide] stands 100 to 500 nM. What is called inhibition is the relative decrease from the control value, in per cent. `CCS(=O)(=O)c1ccc(CC(=O)Nc2cc(C)c3c(n2)CCC(C)(c2ccc4c(c2)OCO4)C3=O)cc1` (stereo not drawn) [Compound 42, N-(6-(benzo[d][1,3]dioxol-5-yl)-4,6-dimethyl-5-oxo-5,6,7,8-tetrahydroquinolin-2-yl)-2-(4-(ethylsulfonyl)phenyl)acetamide]: on RORγ LBD, the inhibition at 1 µM was found to be 94%, the inhibition at 10 µM came out at 92% and the IC50 was under 150 nM. The matching figures for `CCS(=O)(=O)c1ccc(CC(=O)Nc2cc(C)c3c(n2)CCC(C)(c2ncccc2O)C3=O)cc1` (stereo not drawn) [Compound 85, 2-(4-(ethylsulfonyl)phenyl)-N-(6-(3-hydroxypyridin-2-yl)-4,6-dimethyl-5-oxo-5,6,7,8-tetrahydroquinolin-2-yl)acetamide]: 62%, 95% and over 300 nM.

As for `CCS(=O)(=O)c1ccc(CC(=O)Nc2cc3c(cn2)C(=O)C(C)(c2cc(C)nc(C)n2)CC3)cc1` (stereo not drawn) [compound 128, N-(7-(2,6-dimethylpyrimidin-4-yl)-7-methyl-8-oxo-5,6,7,8-tetrahydroisoquinolin-3-yl)-2-(4-(ethylsulfonyl)phenyl)acetamide], at RORγ LBD, the inhibition at 1 µM came to 79%, the inhibition at 10 µM was 110% and the IC50 was under 150 nM.

Regarding `CCS(=O)(=O)c1ccc(CC(=O)Nc2cc(C)c3c(n2)CCC(C)(c2ccc4c(c2)ncn4C)C3=O)cc1` (stereo not drawn) [Compound 43, N-(4,6-dimethyl-6-(1-methyl-1H-benzo[d]imidazol-5-yl)-5-oxo-5,6,7,8-tetrahydroquinolin-2-yl)-2-(4-(ethylsulfonyl)phenyl)acetamide], at RORγ LBD, the inhibition at 1 µM was determined as 82% and the IC50 was under 150 nM. Consider `CCS(=O)(=O)c1ccc(CC(=O)Nc2cc(C)c3c(n2)CCC(C)(c2c(C)ccnc2O)C3=O)cc1` (stereo not drawn) [Compound 86, 2-(4-(ethylsulfonyl)phenyl)-N-(6-(2-hydroxy-4-methylpyridin-3-yl)-4,6-dimethyl-5-oxo-5,6,7,8-tetrahydroquinolin-2-yl)acetamide], for which, at RORγ LBD, the inhibition at 1 µM was found to be 72%, the inhibition at 10 µM stood at 100% and the IC50 was under 150 nM.

For the origin of these results see patent US11229636B2, “Substituted tetrahydroquinolinone compounds as ROR gamma modulators” (Aurigene Discovery Technologies Limited, priority 2015, dated 2022).
